Experimental findings from patent US20090274773A1, “ANTIPROLIFERATIVE COMBINATION COMPRISING CYC-682 AND A CYTOTOXIC AGENT” (Cyclacel Limited, priority 2005, published 2009) are described below.

The structures appear in SMILES notation.

Common to all, as to assay: MTT growth inhibition assay, single agent
What all share (type): cell-based, human
For orientation: Tetrazolium assays rely on reduction of a dye to a coloured formazan, in cell work by metabolically active cells.

The test system of one assay is COLO205. To be noted: Homo sapiens, COLO 205, 24 hours exposure, read-out: Antiproliferative effects IC50s (MTT assay). As to the method:
(§1) All cell lines were obtained from the ATCC (Rockville, Md.). Cells were grown as monolayers in RPMI medium supplemented with 10% fetal calf serum (Invitrogen, Cergy-Pontoise, France), 2 mM glutamine, 100 units/ml penicillin and 100 μg/ml streptomycin. All cells were split twice a week using trypsin/EDTA (0.25% and 0.02%, respectively; Invitrogen, Cergy-Pontoise, France) and seeded at a concentration of 2.5×10^4 cells/ml. All cell lines were tested regularly for Mycoplasma contamination by PCR using a Stratagene kit (La Jolla, Calif.).
(§2) The MTT assay was carried out as described previously (Hansen M B, Nielsen S E, Berg K. Re-examination and further development of a precise and rapid dye method for measuring cell growth/cell kill. J Immunol Methods. 1989 May 12; 119(2):203-10). In brief, cells were seeded in 96-well tissue culture plates at a density of 2×10^3 cells/well. Cell viability was determined after a 120-hour incubation, by the calorimetric conversion of yellow, water-soluble tetrazolium MTT (3-[4,5-dimethylthiazol-2-yl]-2,5-diphenyltetrazolium bromide; Sigma, Saint-Quentin Fallavier, France), into purple, water-insoluble formazan. This reaction is catalyzed by mitochondrial dehydrogenases and is used to estimate the relative number of viable cells (Mosmann, T, Rapid calorimetric assay for cellular growth and survival: application to proliferation and cytotoxicity assays. J Immunol Methods. 1983 Dec. 16; 65 (1-2):55-63). Cells were incubated with 0.4 mg/ml MTT for 4 hours at 37° C. After incubation, the supernatant was discarded, the cell pellet was resuspended in 0.1 ml of DMSO and the absorbance was measured at 560 nm using a microplate reader (Dynatech, Michigan). Wells with untreated cells or with drug-containing medium without cells were used as positive and negative controls, respectively. Growth inhibition curves were plotted as a percentage of untreated control cells.
(§3) The cells were seeded at 2×10^3 cells/well in 96-well plates and treated 24 hours later with increasing concentrations of CYC682. After incubation times of 1 hour, 24 hours or 48 hours, the cells were washed and post-incubated in drug-free medium for 72 hours. Growth inhibition was then determined by the MTT assay.

Another assay has as its system IGROV1. Conditions: Homo sapiens, IGROV-1, 24 hours exposure, read-out: Antiproliferative effects IC50s (MTT assay). As to the method:
as §1, §2, §3

Another assay relates to MDA-MB-435. Conditions: Homo sapiens, 24 hours exposure, read-out: Antiproliferative effects IC50s (MTT assay). As to the method: as §1, §2, §3
Another assay relates to HOP92. Conditions: Homo sapiens, HOP-92, 24 hours exposure, read-out: Antiproliferative effects IC50s (MTT assay). The method, then: as §1, §2, §3
In another assay the test system is HT29. To be noted: Homo sapiens, HT-29, 24 hours exposure, read-out: Antiproliferative effects IC50s (MTT assay). As to the method: as §1, §2, §3
For a further assay, the system named is HCT116. To be noted: Homo sapiens, HCT-116, 24 hours exposure, read-out: Antiproliferative effects IC50s (MTT assay). As to the method:
as §1, §2, §3

In another assay the test system is HCC2998. Conditions: Homo sapiens, HCC 2998, 24 hours exposure, read-out: Antiproliferative effects IC50s (MTT assay). As to the method: as §1, §2, §3
Another assay deals with MCF7. Conditions: Homo sapiens, 24 hours exposure, read-out: Antiproliferative effects IC50s (MTT assay). As to the method: as §1, §2, §3
A further assay concerns OVCAR1. Conditions: Homo sapiens, 24 hours exposure, read-out: Antiproliferative effects IC50s (MTT assay). As to the method: as §1, §2, §3
The next assay has as its system HOP62. Conditions: Homo sapiens, HOP-62, 24 hours exposure, read-out: Antiproliferative effects IC50s (MTT assay). The method, then: as §1, §2, §3

Regarding `CC(=O)O[C@@]12CO[C@@H]1C[C@H](O)[C@@]1(C)C(=O)[C@H](O)C3=C(C)[C@@H](OC(=O)[C@H](O)[C@@H](NC(=O)OC(C)(C)C)c4ccccc4)C[C@@](O)([C@@H](OC(=O)c4ccccc4)[C@H]21)C3(C)C` [Docetaxel], the IC50 with COLO205 stood at 6 ± 1 nM; in the assay on IGROV1 it was 20 ± 10 nM; with MDA-MB-435 it was 10 ± 2 nM; with HOP92, 5 ± 1 nM; in the assay with HT29 it was 10 ± 2 nM; in the assay on HCT116 it was 10 ± 20 nM. Besides, the IC50 in the assay with HCC2998 came to 4 ± 1 nM; in the assay on MCF7, 10 ± 4 nM; with OVCAR1, 50000 ± 120 nM; in the assay with HOP62 it was 20 ± 40 nM.

For `COc1cccc2c1C(=O)c1c(O)c3c(c(O)c1C2=O)C[C@@](O)(C(=O)CO)C[C@@H]3O[C@H]1C[C@H](N)[C@H](O)[C@H](C)O1` [Doxorubicin], the IC50 in the assay on COLO205 is 1500 ± 500 nM; in the assay with IGROV1, 1300 ± 300 nM; in the assay with MDA-MB-435, 2000 ± 400 nM; in the assay with HOP92, 100 ± 50 nM; with HT29, 1070 ± 160 nM; in the assay on HCT116 it was 100 ± 20 nM. Further, the IC50 in the assay on HCC2998 was 700 ± 140 nM; in the assay on MCF7 it was 700 ± 100 nM; with OVCAR1 it was 1000 ± 200 nM; in the assay on HOP62, 140 ± 40 nM.
